Each compound was assayed against Scavenger receptor class B member 1 (Mus musculus) (UniProt Q61009) (assay: inhibition of HDL lipid transfer via mSR-BI – ldlA[mSR-BI] CHO cells, powder samples, set 4, dose response (AID 588548)). Details: DiI-HDL uptake fluorescence, 3 h;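 active = uptake signal drops with a fitted AC50 no higher than ten times the top valid dose (actives reach about 13 µM in these data); inconclusive = flat partial drop between 30 and 70% or poor fit; inactive = the rest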.
Chain of Scavenger receptor class B member 1 (Mus musculus) (Q61009 whole entry, looked up): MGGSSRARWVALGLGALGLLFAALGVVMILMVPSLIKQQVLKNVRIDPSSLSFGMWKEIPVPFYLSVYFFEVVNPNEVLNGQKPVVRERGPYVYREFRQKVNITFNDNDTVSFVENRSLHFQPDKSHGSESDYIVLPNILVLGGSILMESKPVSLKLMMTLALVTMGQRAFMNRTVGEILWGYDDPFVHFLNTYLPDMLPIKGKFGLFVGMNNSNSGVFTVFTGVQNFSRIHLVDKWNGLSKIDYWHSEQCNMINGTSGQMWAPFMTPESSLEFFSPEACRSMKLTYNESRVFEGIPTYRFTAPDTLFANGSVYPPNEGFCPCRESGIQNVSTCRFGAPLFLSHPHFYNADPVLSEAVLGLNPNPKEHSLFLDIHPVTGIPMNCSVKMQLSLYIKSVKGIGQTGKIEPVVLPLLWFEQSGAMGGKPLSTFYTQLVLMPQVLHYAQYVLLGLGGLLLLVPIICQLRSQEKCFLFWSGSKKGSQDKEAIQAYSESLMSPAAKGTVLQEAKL

AC50, active:
COc1cc(OC)cc(C(=O)Nc2nc(-c3ccc4[nH]ccc4c3)cs2)c1 50.5 nM
CCC(=O)N1CCc2cc(-c3csc(NC(=O)c4cc5cccnc5o4)n3)ccc21 45.3 nM
COc1cc(OC)cc(C(=O)Nc2nc(-c3ccc4c(c3)CCN4C(=O)CN(C)C)cs2)c1 < 15 nM
O=C(Nc1nc(-c2ccc3c(c2)CCN3)cs1)c1ccco1 < 15 nM
CCC(=O)N1CCc2cc(-c3csc(N(C)C(=O)c4cc(OC)cc(OC)c4)n3)ccc21 50 nM
CCC(=O)N1CCc2cc(-c3csc(NC(=O)c4cccc(OC(F)(F)F)c4)n3)ccc21 18.5 nM
COCC(=O)N1CCc2cc(-c3csc(NC(=O)c4cc(OC)cc(OC)c4)n3)ccc21 < 15 nM
CCNC(=O)N1CCc2cc(-c3csc(NC(=O)c4cc(OC)cc(OC)c4)n3)ccc21 < 15 nM
O=C(CN(C(=O)Cn1nnc(-c2ccc(Cl)c(Cl)c2)n1)C1CCCCC1)NC1CCCC1 302 nM
O=C(CN(C(=O)Cn1nnc(-c2ccc3c(c2)OCO3)n1)C1CCCCC1)NC1CCCC1 < 15 nM
CC(C(=O)NC1CCCC1)N(C(=O)Cn1nnc(-c2ccc3c(c2)OCO3)n1)C1CCOCC1 (configuration not stated) 3180 nM
CCC(=O)N1CCc2cc(-c3csc(NC(=O)c4cc(OC)c(OC)c(OC)c4)n3)ccc21 < 15 nM
CCC(=O)Nc1ccc(-c2csc(NC(=O)c3ccco3)n2)cc1 1920 nM
CCCCCCC1CCC/C1=N\NC(N)=S (configuration not stated) < 15 nM
CCCN1CCc2cc(-c3csc(NC(=O)c4cc(OC)cc(OC)c4)n3)ccc21 51.7 nM
COC(=O)N1CCc2cc(-c3csc(NC(=O)c4cc(OC)cc(OC)c4)n3)ccc21 72 nM
CC(C(=O)NC1CCCC1)N(C(=O)Cn1nnc(-c2ccc3c(c2)OC(F)(F)O3)n1)C1CCCCC1 (configuration not stated) 63.5 nM
COc1cc(OC)cc(C(=O)Nc2nc(-c3ccc4c(c3)CCN4C(=O)OC(C)(C)C)cs2)c1 < 15 nM
CC(C(=O)NC1CCCC1)N(C(=O)Cn1nnc(-c2ccc3c(c2)OCO3)n1)C1CCCCC1 (configuration not stated) < 15 nM
CCC(=O)Nc1ccc(-c2csc(N)n2)cc1 8840 nM
CCC(=O)N1CCc2cc(-c3csc(NC(=O)c4ccco4)n3)ccc21 28.6 nM
COc1cc(OC)cc(C(=O)Nc2nc(-c3ccc4c(c3)CCN4C(C)=O)cs2)c1 24.9 nM
COc1ccc(-c2nnn(CC(=O)N(CC(=O)NC3CCCC3)C3CCCCC3)n2)cc1OC < 15 nM
COc1ccc(-c2nc(CC(=O)N(C3CCCCC3)C(C)C(=O)NC3CCCC3)cs2)cc1OC (configuration not stated) 5260 nM
COc1cc(OC)cc(C(=O)Nc2nc(-c3ccc4c(c3)CCN4)cs2)c1 103 nM
CCC(=O)N1CCc2cc(-c3csc(NC(=O)c4cc(OC)cc(OC)c4)n3)ccc21 29.5 nM
CCC(=O)N1CCc2cc(-c3csc(/N=C(/OC)c4cc(OC)cc(OC)c4)n3)ccc21 1020 nM
CC(C)(C)OC(=O)N1CCc2cc(-c3noc(NC(=O)c4ccco4)n3)ccc21 14600 nM
CC(C(=O)NC1CCCC1)N(C(=O)Cn1nnc(-c2ccc(Cl)c(Cl)c2)n1)C1CCCCC1 (configuration not stated) 250 nM
CCC(=O)Nc1ccc(-c2csc(NC(=O)c3cccc(OC)c3)n2)cc1 99.3 nM
O=C(CN(C(=O)Cn1nnc(-c2ccc3c(c2)OC(F)(F)O3)n1)C1CCCCC1)NC1CCCC1 26 nM
COc1ccc(-c2cc(CC(=O)N(C3CCCCC3)C(C)C(=O)NC3CCCC3)no2)cc1OC (configuration not stated) 28.5 nM

Reference: PubChem BioAssay AID588548 (Broad Institute, 2011)
